Legend:
IL23-p19 = experiment: Compound screening using DC cells: LPS-induced IL-23 (p19/p40) ELISA in IFNγ-primed dendritic cells differentiated from human PBMC; assay type: cell-based; conditions: Dendritic cell, human PBMC-derived dendritic cells, LPS 1 μg/ml, 18 hours, 10 pt
Method: Compound Screening Using DC Cells
Human PBMC cells (400 million) obtained from the vendor were transferred into a T-175 flask containing 15 ml RPMI media (10% FBS) and incubate for 2 hours at 37° C. After 2 hours, the media including floating cells was aspirated out carefully and 12 ml of fresh RPMI media (10% FBS) containing GMCSF (100 ng/ml) and IL4 (20 ng/ml) was added, and the flask was kept in a 37° C. incubator for 7 days.
After 3 days, fresh GMCSF (100 ng/ml) and IL4 (20 ng/ml) were added to the flask and the incubation continued. After 7 days, the fully differentiated cells were harvested by spinning down (1200 rpm/5 min) and aspirating the media. The cells were suspended in fresh RPMI media (10% FBS) containing 50 ng/ml IFNγ (1000 U/ml) and then plated (50K/well in 100 μl) onto a white clear bottom 96 well plate and left in a 37° C. incubator for 24 hours.
After 24 hours incubation, 100 μl of RPMI media was added containing 2× concentrated test compound per well to the above cell-culture media (final concentration becomes 1×) and the plates were pre-incubated for 1 hour at 37° C. before stimulating with LPS.
After 1 hour compound pre-incubation, 10 μl per well of 20× concentrated LPS solution in RPMI media was added to give a final concentration of 1 μg/ml. The mixture was shaken and incubated the plates at 37° C. for an additional 18 hours.
155 μl of the supernatant was harvested from each well carefully (without the tip touching the bottom of the well) and to the remaining 50 μl/well of the cell culture plate was added 50 μl of Cell Titer Glo reagent. The mixture was incubated for 1-2 minutes on a shaker and the plate was read for luminescence intensity to determine the compound cytotoxicity. The cell culture supernatant collected above was used to carry out IL23 ELISA (65 μl—Supernatant) and IL10 ELISA (90 μl—Supernatant) as described below.
Human IL-23 (p19/p40) ELISA Protocol (e-Biosciences)
To 10.5 ml PBS add 50 μl of anti-IL23 (p19) was added capture antibody (2.5 μg/ml). The mixture was mixed well and 100 μl of the coating solution was added to each well of the 96 well white plates from Pierce. The wells were covered and incubated overnight at 4° C.
The anti-IL23 (p19)-antibody-coated plates were washed 2× using TBST (use plate washer) and blocked using 200 μl of 0.5% Casein for 1.5-2 hours at room temperature with shaking.
The plates were washed 2× using TBST and the supernatant was transferred (65 μl/well) to the above pre-blocked/IL23(p19)-antibody-coated 96 well plate, and incubated at room temperature for 1.5 hours with shaking.
The plates were washed 4× using TBST (plate washer) and 100 μl/well detection antibody solution prepared from 2 μl of biotin labeled anti-IL-12 (p40/p70) antibody in 11 ml 1% BSA/PBS solution (I-5000 dilution) was added. The plates were incubated for 1 hour with shaking at Room temperature.
Again, the plates were washed 4× with TBST and 100 μl of HRP labeled Streptavidin (R&D Systems) solution (10 μl/10 ml 1% BSA solution) was added, and the plates were incubated at room temperature for another 45 minutes with shaking.
After 45 minutes, the plates were washed with TBST 4× and 100 ul/well Super Signal ELISA Pico Chemiluminescent Substrate from Pierce (3.5 ml A+3.5 ml B+3.5 ml MQ water) was added. The plates were shaken for 1-2 minutes then read on a plate reader.

IL23p19 = experiment: LPS Induced IL23p19 in THP-1 Cells (with IFNγ Primed) Assay; assay type: cell-based; conditions: Homo sapiens, IFNγ primed (50 ng/mL), LPS 1 ug/mL, 18 hours, 10 pt, read-out: IL23-p19 ELISA, THP1-IFNy, LPS, 10 pt EC50
Excerpt: LPS Induced IL23p19 in THP-1 Cells (with IFNγ Primed) Assay
THP-1 Cells (ATCC, Cat # TIB-202), Dimethyl Sulfoxide (DMSO) (Sigma-Aldrich, Cat # D2650), RPMI 1640 (Cellgro, Cat #10-040-CM), Fetal Bovine Serum (Sigma, Cat # F4135), Albumin From Bovine Serum (BSA) (Sigma-Aldrich, Cat # A7906), LPS (Serotype K-235, Sigma, Product Number L 2143), IFNγ (Peprotech, Cat #300-02)
Capture antibody: Human IL-23p19 ELISA (e-Bioscience, Cat. #14-7238-85),
Detection antibody: Primary Mouse Biotinylated anti-human IL-12(p40/p70) (e-Bioscience, Cat. #13-7129-85), Secondary HRP-conjugated Streptavidin (R&D Systems, Cat # DY998), 1×PBST Washing Buffer (PBS-Tween tablet) (VWR International, Cat #80058-558), ELISA Blocking Buffer (PBS with 1% BSA), ELISA Dilution Buffer (PBS with 1% BSA), 384 Well Flat-Bottom, MaxiSorp Black Immuno Plates (Thermo Scientific, Cat #12-565-346), 384 Well Flat-Bottom, White Tissue Culture Plates (Thermo Scientific, Cat #12-565-343), Super Signal ELISA Pico Chemiluminescent Substrate (Thermo Scientific, Cat #37070), Cell Titer Glo reagent (Promega, Cat # G7573), Positive control, IKK2VI inhibitor (Calbiochem, Cat #401483), AquaMax 4000 plate washer (Molecular Devices), Luminometer, Wallac Victor2 1420 Multilabel Counter. Method THP-1 Cells Stimulation:
On day 1, 50K/well THP-1 cells were seeded and primed with IFNγ (50 ng/mL) in 384-well plates for about 18 hours in RPMI media with 10% FBS. On day 2, the compound was serially diluted in DMSO from 5 mM in 3-fold dilutions, and then diluted 1:125 in RPMI media with 10% FBS. 50 μL/well 2× compound was added to 50 μL/well THP-1 cells (with IFNγ primed) in duplicate in 384 well tissue culture plates. The cells were pre-incubated with compound for 1 hour at 37° C., 5% CO2 before addition of 10 μL/well 11×LPS to give a final concentration of 1 ug/mL LPS. Day 3, after stimulation for 18 hours at 37° C., 5% CO2, the assay plate was centrifuged and 70 μL/well supernatant was harvested. IL-23p19 protein in 70 μL/well of supernatant was measured by sandwich ELISA, and 25 μl/well Cell Titer Glo reagent was added to the remaining cells to measure compound toxicity.
Human IL-23p19 Sandwich ELISA:
Maxisorp immuno ELISA plates were pre-coated with 25 μL/well of anti-IL-23p19 capture antibody (2.5 ug/mL) in PBS overnight at room temperature. After washing with 1×PBST, the plates were blocked using 100 μL/well of 1% BSA in PBS for 2 hours at room temperature. The plates were washed three times with 1×PBST and 70 μL/well supernatant were added. The plates were incubated at room temperature for 2 hours with shaking and washed three times with 1×PBST. 25 μL/well of biotin labeled anti-IL-12(p40/p70) detection antibody (100 ng/mL) in PBS with 1% BSA was added and the plates were incubated at room temperature for 2 hours with shaking. After washing three times with 1×PBST, 25 μL/well of streptavidin-HRP (1:200) in PBS with 1% BSA was added and the plates were incubated at room temperature for 20 minutes with shaking. The plates were washed three times with 1×PBST and 25 μL/well of Super Signal ELISA Pico Chemiluminescent Substrate were added. The plates were read with a luminometer, and the chemiluminescence values were entered into Athena (Rigel) for curve fitting, EC50 calculation, and database storage.

Row | SMILES | EC50 (IL23-p19) [µM] | EC50 (IL23p19) [µM]
1 | O=C(Nc1cc2oc(N3CCOCC3)nc2cc1N1CCCCC1)c1ccc(-c2cn[nH]c2)o1 [Compound I-3, N-(2-morpholino-5-(piperidin-1-yl)benzo[d]oxazol-6-yl)-5-(1H-pyrazol-4-yl)furan-2-carboxamide] | 0.0391 | 0.0314
2 | Cc1cc(-c2nc(C(=O)Nc3cc4oc(N5CCOCC5)nc4cc3N3CCCC(F)C3)cs2)ccn1 (centres unmarked) [Compound I-41, N-(5-(3-fluoropiperidin-1-yl)-2-morpholinobenzo[d]oxazol-6-yl)-2-(2-methylpyridin-4-yl)thiazole-4-carboxamide] | 2.58 | 0.147
3 | O=C(Nc1cc2oc(N3CCOCC3)nc2cc1N1CCCC1)c1csc(-c2cn[nH]c2)n1 [Compound I-47, N-(2-morpholino-5-(pyrrolidin-1-yl)benzo[d]oxazol-6-yl)-2-(1H-pyrazol-4-yl)thiazole-4-carboxamide] | 0.058 | 0.0213
4 | O=C(Nc1cc2oc(N3CCOCC3)nc2cc1N1CCOCC1)c1ccc(-c2cn[nH]c2)o1 [Compound I-48, N-(2,5-dimorpholinobenzo[d]oxazol-6-yl)-5-(1H-pyrazol-4-yl)furan-2-carboxamide] | 0.123 | 0.0585
5 | O=C(Nc1cc2oc(N3CCCCC3)nc2cc1N1CCCCC1)c1ccc(-c2cn[nH]c2)o1 [Compound I-31, N-(2,5-di(piperidin-1-yl)benzo[d]oxazol-6-yl)-5-(1H-pyrazol-4-yl)furan-2-carboxamide] | 0.444 | 0.144
6 | Cc1cc(-c2ccc(C(=O)Nc3cc4oc(N5CCOCC5)nc4cc3N3CCC(F)CC3)o2)ccn1 [Compound I-24, N-(5-(4-fluoropiperidin-1-yl)-2-morpholinobenzo[d]oxazol-6-yl)-5-(2-methylpyridin-4-yl)furan-2-carboxamide] | 5.77 | 1.08
7 | Cc1cc(-c2nc(C(=O)Nc3cc4oc(N5CCOCC5)nc4cc3N3CCCC(F)(F)C3)cs2)ccn1 [Compound I-45, N-(5-(3,3-difluoropiperidin-1-yl)-2-morpholinobenzo[d]oxazol-6-yl)-2-(2-methylpyridin-4-yl)thiazole-4-carboxamide] | 0.402 | 0.342
8 | Nc1ccc(-c2ccc(C(=O)Nc3cc4oc(N5CCOCC5)nc4cc3N3CCCCC3)o2)cn1 [Compound I-1, 5-(6-aminopyridin-3-yl)-N-(2-morpholino-5-(piperidin-1-yl)benzo[d]oxazol-6-yl)furan-2-carboxamide] | 4.73 | 0.898
9 | Cc1cc(-c2ccc(C(=O)Nc3cc4sc(N5CCOCC5)nc4cc3N3CCCCC3)o2)ccn1 [Compound I-9, 5-(2-methylpyridin-4-yl)-N-(2-morpholino-5-(piperidin-1-yl)benzo[d]thiazol-6-yl)furan-2-carboxamide] | 0.897 | 52.1
10 | O=C(Nc1cc2oc(N3CCCCC3)nc2cc1N1CCCCC1)c1csc(-c2cn[nH]c2)n1 [Compound I-35, N-(2,5-di(piperidin-1-yl)benzo[d]oxazol-6-yl)-2-(1H-pyrazol-4-yl)thiazole-4-carboxamide] | 0.666 | 0.321
11 | COCCN(C)c1nc2cc(N3CCCCC3)c(NC(=O)c3ccc(-c4cn[nH]c4)o3)cc2o1 [Compound I-50, N-(2-((2-methoxyethyl)(methyl)amino)-5-(piperidin-1-yl)benzo[d]oxazol-6-yl)-5-(1H-pyrazol-4-yl)furan-2-carboxamide] | 0.0757 | 0.133
12 | CN1CCN(c2nc3cc(N4CCCCC4)c(NC(=O)c4ccc(-c5cn[nH]c5)o4)cc3o2)CC1 [Compound I-16, N-(2-(4-methylpiperazin-1-yl)-5-(piperidin-1-yl)benzo[d]oxazol-6-yl)-5-(1H-pyrazol-4-yl)furan-2-carboxamide] | 0.0322 | 0.0258
13 | Cc1cc(-c2ccc(C(=O)Nc3cc4oc(N5CCOCC5)nc4cc3N3CCCC(F)(F)C3)o2)ccn1 [Compound I-43, N-(5-(3,3-difluoropiperidin-1-yl)-2-morpholinobenzo[d]oxazol-6-yl)-5-(2-methylpyridin-4-yl)furan-2-carboxamide] | 2.62 | 0.344
14 | Cc1cc(-c2nc(C(=O)Nc3cc4oc(N5CCOCC5)nc4cc3N3CCCCC3)cs2)ccn1 [Compound I-14, 2-(2-methylpyridin-4-yl)-N-(2-morpholino-5-(piperidin-1-yl)benzo[d]oxazol-6-yl)thiazole-4-carboxamide] | 17.9 | 10.2
15 | O=C(Nc1cc2oc(N3CCCCC3)nc2cc1N1CCCCC1)c1ccc(-c2cc[nH]n2)o1 [Compound I-32, N-(2,5-di(piperidin-1-yl)benzo[d]oxazol-6-yl)-5-(1H-pyrazol-3-yl)furan-2-carboxamide] | 24.1 | 1.78
16 | CN(CCN1CCOCC1)c1nc2cc(N3CCCCC3)c(NC(=O)c3csc(-c4cn[nH]c4)n3)cc2o1 [Compound I-54, N-(2-(methyl(2-morpholinoethyl)amino)-5-(piperidin-1-yl)benzo[d]oxazol-6-yl)-2-(1H-pyrazol-4-yl)thiazole-4-carboxamide] | 0.0603 | 0.106

— US10774076B2, “Benzazole compounds and methods for making and using the compounds” (Rigel Pharmaceuticals, Inc., priority 2015, dated 2020)
